From PMC7577153, “Identification of Small-Molecule Inhibitors Targeting Porphyromonas gingivalis Interspecies Adherence and Determination of Their In Vitro and In Vivo Efficacies” (Antimicrobial Agents and Chemotherapy, 2020) come the findings set out here.

The subject of data set [1] is TIGK cells. Conditions: positive control, 2 mM hydrogen peroxide, 4 h.
Procedure: (§1) The mouse macrophage cell line J774A.1 was grown in Dulbecco’s modified Eagle medium (DMEM) (Thermo Fisher Scientific, Waltham, MA) supplemented with 4.5 g/ml glucose, 10% fetal bovine serum (FBS), and 100 U/ml penicillin-streptomycin (Sigma-Aldrich, St. Louis, MO). HL60 (ATCC CCL240) cells were obtained from the American Type Culture Collection and cultured in Iscove’s modified Dulbecco’s medium (Sigma-Aldrich) supplemented with 20% fetal bovine serum (FBS) (Sigma-Aldrich).
(§2) The apoptotic activity of the compounds was determined using the phycoerythrin (PE) annexin V/dead cell apoptosis kit with Sytox green for flow cytometry (Invitrogen, Carlsbad, CA). Cells were grown in 12-well flat-bottom microtiter plates at an initial density 2 × 10^5 cells in 1.5-ml medium per well for 24 h. Following the incubation period, spent medium was replaced with fresh medium containing the desired concentration of the test compound and incubated for another 18 h. After trypsinization, cells were harvested by centrifuging at 250 × g for 4 min, and the cell pellet was suspended in 100 μl of binding buffer supplemented with 1 μl Sytox and 5 μl annexin V, followed by incubation at 37°C for 15 min. Samples were then diluted by adding 400-μl binding buffer, and flow cytometry was performed using a FACScalibur flow cytometer (Becton, Dickinson, Franklin Lakes, NJ), measuring the fluorescence emissions at 530 nm and 575 nm.
Data set [2] concerns J774A.1 cells. Conditions: positive control, 2 mM hydrogen peroxide, 4 h.
Procedure: as §1, §2
The test system of data set [3] is HL60 cells. Conditions: HL60, positive control, 2 mM hydrogen peroxide, 4 h.
Procedure: as §1, §2

Marks after values point to notes of the source that are not given here.

For `OO` [Medium/H2O2, hydrogen peroxide, reference compound], the “Early apoptosis (%)” value worked out at 4.9% in data set [1], 1.3% in data set [2] and 12.3% in data set [3]. Besides, the “Late apoptosis/necrosis (%)” value in data set [1] was 21.9* %; in data set [2] it was 34.7%; in data set [3] it was 31.4%. Besides, the “Live cells (%)” value in data set [1] stood at 56.6%; in data set [2], 41.9%; in data set [3] it was 52.7%.
